# Experiments:
# DMS-114 cells = assay: Measurement of intracellular G418 (gentamicin ELISA) in DMS-114 cells; type: cell-based, human; details: 150 μM AC1903 (Fig. 2D)
# Experimental: Figure 2 Effect of AC1903 on PTC readthrough and G418 trafficking.A and B, DMS-114 (A) or TC-71 (B) cells were pretreated with indicated concentrations of AC1903 for 3 h followed by exposure to 400 μg/ml G418. After 3 h medium was replenished and at 24 h cell lysates were prepared and p53 levels were measured. C and E, DMS-114 (C) or JEB01 (E) cells were either left untreated or pretreated with 150 μM AC1903 for 3 h followed by exposure to indicated concentrations of G418 for another 3 h. At 24 h cell lysates were prepared and p53 (C) or Collagen XVII (E) levels were measured. In panels A–C, protein levels were measured by automated capillary electrophoresis Western analysis (using vinculin as loading control). In panel E, protein levels were measured by Western blot (using beta-actin as loading control). […] D, total intracellular levels of G418 were measured in the same lysates as in (C) (n = 5; data normalized to the highest response in each experiment; bars represent mean ± SD). F, total intracellular levels of G418 were measured in the same lysates as in (E) (n = 2; data normalized to the highest response in each experiment; bars represent mean ± SD). ∗ indicates statistically significant difference between samples according to one-way ANOVA (p < 0.05). […]
# TC-71 cells (TP53 R213X) = assay: G418-induced PTC readthrough (full-length p53, capillary electrophoresis Western) in TC-71 cells; type: cell-based; details: without G418
# Description: Variation in PTC readthrough response has been reported among individuals or cell lines with different nonsense mutations. Although this in part highlights the importance of the stop codon and its surrounding sequence as well as the physical location of the nonsense mutation in the mRNA sequence, understanding the contribution of other underlying genetic variations becomes more complicated. To rule out the effect of the sequence and position of nonsense mutations on response variation to potential PTC readthrough modulators, we studied two cancer cell lines, DMS-114 and TC-71, with identical homozygous nonsense mutation R213X in their TP53 gene. […] To find out whether the reduced response to G418 in TC-71 cells was associated with lower intracellular levels of G418, we measured concentrations of G418 in both cell lines at 0, 8 and 24 h post exposure to G418 (100 μg/ml).
# Figure 1 Effect of TRPC inhibitors on G418 induced PTC readthrough. A, DMS-114 and TC-71 cell lines with homozygous TP53 nonsense mutation (R213X) were exposed to indicated concentrations of G418 for 24 h and p53 levels (full-length, FL-p53; truncated, TR-p53) were measured. B, 100 μg/ml G418 was added to DMS-114 and TC-71 cells and its total intracellular levels were measured at indicated time points (n = 5; data normalized to the highest response in each experiment; bars represent mean ± SD). […]
compound,measurement,setting,value
c1ccc(Cn2c(NCc3ccco3)nc3ccccc32)cc1 [AC1903],intracellular G418 levels in the presence of AC1903,DMS-114 cells,significantly decreased
same,effect on PTC readthrough of AC1903 alone,TC-71 cells (TP53 R213X),did not affect PTC readthrough
